IC50 data for 30 molecules are collected here from patent US9637473B2, “Acrylamide derivatives as antimalarial agents” (priority 2013, dated 2017).

SMILES strings stand for the structures.

In the test the test system is P. Falciparum NF54. As to the kind of experiment: Plasmodium falciparum in vitro assay ([3H]-hypoxanthine incorporation). Particulars: Plasmodium falciparum, Erythrocyte, P. Falciparum NF54, erythrocytic stages in human red blood cells, 50% human serum. Format: cell-based. The gist of the method:
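This in vitro antimalarial assay used P. falciparum erythrocytic stages cultured in human erythrocytes and measured [3H]-hypoxanthine incorporation. Radioactivity on the dried filters, placed in plastic foil with 10 mL scintillation fluid, was counted in a Betaplate liquid scintillation counter. Sigmoidal inhibition curves built in Microsoft Excel gave the IC50.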
With `CCCOc1ccc(/C=C/C(=O)N(Cc2ccc(N(C)c3ccncc3)cc2)C2CCN(Cc3ccccc3)CC2)cc1` [Example 148, (E)-N-(1-Benzyl-piperidin-4-yl)-N-[4-(methyl-pyridin-4-yl-amino)-benzyl]-3-(4-propoxy-phenyl)-acrylamide], half-maximal inhibition (IC50) was put at 61 nM. To `COc1ccc(/C=C/C(=O)N(Cc2ccc(N(C)c3ccncc3)cc2)C2CCN(Cc3ccccc3)CC2)cc1` [Example 149, (E)-N-(1-Benzyl-piperidin-4-yl)-3-(4-methoxy-phenyl)-N-[4-(methyl-pyridin-4-yl-amino)-benzyl]-acrylamide] belongs 181 nM; to `COc1cccc(/C=C/C(=O)N(Cc2ccc(N(C)c3ccncc3)cc2)C2CCN(Cc3ccccc3)CC2)c1` [Example 150, (E)-N-(1-Benzyl-piperidin-4-yl)-3-(3-methoxy-phenyl)-N-[4-(methyl-pyridin-4-yl-amino)-benzyl]-acrylamide], 293 nM. To `COc1ccccc1/C=C/C(=O)N(Cc1ccc(N(C)c2ccncc2)cc1)C1CCN(Cc2ccccc2)CC1` [Example 151, (E)-N-(1-Benzyl-piperidin-4-yl)-3-(2-methoxy-phenyl)-N-[4-(methyl-pyridin-4-yl-amino)-benzyl]-acrylamide] belongs 222 nM.

For the molecule `CN(c1ccncc1)c1ccc(CN(C(=O)/C=C/c2ccc(Cl)cc2)C2CCN(Cc3ccccc3)CC2)cc1` [Example 152, (E)-N-(1-Benzyl-piperidin-4-yl)-3-(4-chloro-phenyl)-N-[4-(methyl-pyridin-4-yl-amino)-benzyl]-acrylamide], the IC50 was 76 nM. Under `CN(c1ccncc1)c1ccc(CN(C(=O)/C=C/c2cccc(Cl)c2)C2CCN(Cc3ccccc3)CC2)cc1` [Example 153, (E)-N-(1-Benzyl-piperidin-4-yl)-3-(3-chloro-phenyl)-N-[4-(methyl-pyridin-4-yl-amino)-benzyl]-acrylamide] stands 87 nM.

For the molecule `CN(c1ccncc1)c1ccc(CN(C(=O)/C=C/c2ccccc2Cl)C2CCN(Cc3ccccc3)CC2)cc1` [Example 154, (E)-N-(1-Benzyl-piperidin-4-yl)-3-(2-chloro-phenyl)-N-[4-(methyl-pyridin-4-yl-amino)-benzyl]-acrylamide], inhibition was half-maximal at 145 nM (IC50). Regarding `CN(c1ccncc1)c1ccc(CN(C(=O)/C=C/c2ccc(F)cc2)C2CCN(Cc3ccccc3)CC2)cc1` [Example 155, (E)-N-(1-Benzyl-piperidin-4-yl)-3-(4-fluoro-phenyl)-N-[4-(methyl-pyridin-4-yl-amino)-benzyl]-acrylamide], half-maximal inhibition (IC50) required 101 nM. To `CN(c1ccncc1)c1ccc(CN(C(=O)/C=C/c2cccc(F)c2)C2CCN(Cc3ccccc3)CC2)cc1` [Example 156, (E)-N-(1-Benzyl-piperidin-4-yl)-3-(3-fluoro-phenyl)-N-[4-(methyl-pyridin-4-yl-amino)-benzyl]-acrylamide] belongs 101 nM.

`CN(c1ccncc1)c1ccc(CN(C(=O)/C=C/c2ccccc2F)C2CCN(Cc3ccccc3)CC2)cc1` [Example 157, (E)-N-(1-Benzyl-piperidin-4-yl)-3-(2-fluoro-phenyl)-N-[4-(methyl-pyridin-4-yl-amino)-benzyl]-acrylamide] returned a half-inhibitory concentration (IC50) of 190 nM. In turn, `Cc1ccc(/C=C/C(=O)N(Cc2ccc(N(C)c3ccncc3)cc2)C2CCN(Cc3ccccc3)CC2)cc1` [Example 158, (E)-N-(1-Benzyl-piperidin-4-yl)-N-[4-(methyl-pyridin-4-yl-amino)-benzyl]-3-p-tolyl-acrylamide] displayed an IC50 of 190 nM. In other words, the sub-micromolar range. Consider `Cc1cccc(/C=C/C(=O)N(Cc2ccc(N(C)c3ccncc3)cc2)C2CCN(Cc3ccccc3)CC2)c1` [Example 159, (E)-N-(1-Benzyl-piperidin-4-yl)-N-[4-(methyl-pyridin-4-yl-amino)-benzyl]-3-m-tolyl-acrylamide], for which the IC50 is 195 nM. Under `Cc1ccccc1/C=C/C(=O)N(Cc1ccc(N(C)c2ccncc2)cc1)C1CCN(Cc2ccccc2)CC1` [Example 160, (E)-N-(1-Benzyl-piperidin-4-yl)-N-[4-(methyl-pyridin-4-yl-amino)-benzyl]-3-o-tolyl-acrylamide] stands 167 nM; under `CN(c1ccncc1)c1ccc(CN(C(=O)/C=C/c2ccc(C(F)(F)F)nc2)C2CCN(Cc3ccccc3)CC2)cc1` [Example 161, (E)-N-(1-Benzyl-piperidin-4-yl)-N-[4-(methyl-pyridin-4-yl-amino)-benzyl]-3-(6-trifluoromethyl-pyridin-3-yl)-acrylamide], 58 nM; under `CN(c1ccncc1)c1ccc(CN(C(=O)/C=C/c2ccc(S(C)(=O)=O)cc2)C2CCN(Cc3ccccc3)CC2)cc1` [Example 162, (E)-N-(1-Benzyl-piperidin-4-yl)-3-(4-methanesulfonyl-phenyl)-N-[4-(methyl-pyridin-4-yl-amino)-benzyl]-acrylamide], 160 nM. To `Cc1nc(C)c(/C=C/C(=O)N(Cc2ccc(N(C)c3ccncc3)cc2)C2CCN(Cc3ccccc3)CC2)s1` [Example 163, (E)-N-(1-Benzyl-piperidin-4-yl)-3-(2,4-dimethyl-thiazol-5-yl)-N-[4-(methyl-pyridin-4-yl-amino)-benzyl]-acrylamide] belongs 289 nM; to `Cc1c(/C=C/C(=O)N(Cc2ccc(N(C)c3ccncc3)cc2)C2CCN(Cc3ccccc3)CC2)cnn1C` [Example 164, (E)-N-(1-Benzyl-piperidin-4-yl)-3-(1,5-dimethyl-1H-pyrazol-4-yl)-N-[4-(methyl-pyridin-4-yl-amino)-benzyl]-acrylamide], 368 nM. With `Cc1nn(C)c(C)c1/C=C/C(=O)N(Cc1ccc(N(C)c2ccncc2)cc1)C1CCN(Cc2ccccc2)CC1` [Example 165, (E)-N-(1-Benzyl-piperidin-4-yl)-N-[4-(methyl-pyridin-4-yl-amino)-benzyl]-3-(1,3,5-trimethyl-1H-pyrazol-4-yl)-acrylamide], the IC50 came out at 192 nM.

Turning to `Cc1cc(Nc2ccc(CN(CCCN(C)C)C(=O)/C=C/c3ccc(C(F)(F)F)cc3)cc2)ccn1` [Example 166, (E)-N-(3-Dimethylamino-propyl)-N-[4-(2-methyl-pyridin-4-ylamino)-benzyl]-3-(4-trifluoromethyl-phenyl)-acrylamide], the half-maximal inhibitory concentration (IC50) was found to be 68 nM.

Molecule `Cc1cc(Nc2ccc(CN(CCCN(C)C)C(=O)/C=C/c3ccc(Cl)cc3)cc2)ccn1` [Example 167, (E)-3-(4-Chloro-phenyl)-N-(3-dimethylamino-propyl)-N-[4-(2-methyl-pyridin-4-ylamino)-benzyl]-acrylamide] showed an IC50 of 110 nM. This IC50 is about 1.6-fold higher than that of the molecule before. Take `Cc1cc(Nc2ccc(CN(C(=O)/C=C/c3ccc(C(F)(F)F)cc3)C3CCN(C4CCCC4)CC3)cn2)ccn1` [Example 168, (E)-N-(1-Cyclopentyl-piperidin-4-yl)-N-[6-(2-methyl-pyridin-4-ylamino)-pyridin-3-ylmethyl]-3-(4-trifluoromethyl-phenyl)-acrylamide]: the IC50 was 42 nM. This IC50 lies about 2.6-fold lower than the previous one. Under `Cc1cc(Nc2ccc(CN(C(=O)/C=C/c3ccc(Cl)cc3)C3CCN(C4CCCC4)CC3)cn2)ccn1` [Example 169, (E)-3-(4-Chloro-phenyl)-N-(1-cyclopentyl-piperidin-4-yl)-N-[6-(2-methyl-pyridin-4-ylamino)-pyridin-3-ylmethyl]-acrylamide] stands 134 nM. To `Cc1cc(Nc2ccc(CN(C(=O)/C=C/c3ccc(C(F)(F)F)cc3)C3CCN(C4CCCC4)CC3)nc2)ccn1` [Example 170, (E)-N-(1-Cyclopentyl-piperidin-4-yl)-N-[5-(2-methyl-pyridin-4-ylamino)-pyridin-2-ylmethyl]-3-(4-trifluoromethyl-phenyl)-acrylamide] belongs 67 nM; to `Cc1cc(Nc2ccc(CN(C(=O)/C=C/c3ccc(Cl)cc3)C3CCN(C4CCCC4)CC3)nc2)ccn1` [Example 171, (E)-3-(4-Chloro-phenyl)-N-(1-cyclopentyl-piperidin-4-yl)-N-[5-(2-methyl-pyridin-4-ylamino)-pyridin-2-ylmethyl]-acrylamide], 134 nM; to `Cc1cc(Nc2ccc(CN(CC3CCN(C4CCN(C)CC4)CC3)C(=O)/C=C/c3ccc(C(F)(F)F)cc3)cc2)ccn1` [Example 172, (E)-N-(1′-Methyl-[1,4′]bipiperidinyl-4-ylmethyl)-N-[4-(2-methyl-pyridin-4-ylamino)-benzyl]-3-(4-trifluoromethyl-phenyl)-acrylamide], 178 nM. To `Cc1cc(Nc2ccc(CN(CCCN3CCOCC3)C(=O)/C=C/c3ccc(C(F)(F)F)cc3)cc2)ccn1` [Example 173, (E)-N-[4-(2-Methyl-pyridin-4-ylamino)-benzyl]-N-(3-morpholin-4-yl-propyl)-3-(4-trifluoromethyl-phenyl)-acrylamide] belongs 355 nM; to `Cc1cc(Nc2ccc(CN(C(=O)/C=C/c3ccc(C(F)(F)F)cc3)C3CCN(C)CC3)cc2)ccn1` [Example 174, (E)-N-(1-Methyl-piperidin-4-yl)-N-[4-(2-methyl-pyridin-4-ylamino)-benzyl]-3-(4-trifluoromethyl-phenyl)-acrylamide], 67 nM; to `Cc1cc(Nc2ccc(CN(CC3(O)CCN(C)CC3)C(=O)/C=C/c3ccc(C(F)(F)F)cc3)cc2)ccn1` [Example 175, (E)-N-(4-Hydroxy-1-methyl-piperidin-4-ylmethyl)-N-[4-(2-methyl-pyridin-4-ylamino)-benzyl]-3-(4-trifluoromethyl-phenyl)-acrylamide], 334 nM. As to `Cc1cc(Nc2ccc(CN(CCN(C)C)C(=O)/C=C/c3ccc(C(F)(F)F)cc3)cc2)ccn1` [Example 176, (E)-N-(2-Dimethylamino-ethyl)-N-[4-(2-methyl-pyridin-4-ylamino)-benzyl]-3-(4-trifluoromethyl-phenyl)-acrylamide], inhibition was half-maximal at 58 nM (IC50). Under `CN1CCC(N(C)c2ccc(CN(C(=O)/C=C/c3ccc(C(F)(F)F)cc3)C3CCN(Cc4ccccc4)CC3)cc2)CC1` [Example 177, (E)-N-(1-Benzyl-piperidin-4-yl)-N-{4-[methyl-(1-methyl-piperidin-4-yl)-amino]-benzyl}-3-(4-trifluoromethyl-phenyl)-acrylamide] stands 238 nM.
